The values that follow come from article PMC6044955 (ACS Omega, 2017).

A value given as a limit tells only on which side of the number the result lay.

Common to all, as to type: cell-based
Experiment [1] addresses hα3β2 nAChR (Homo sapiens, UniProt P17787+P32297).
Experiment [2] has as its target hα3β4 nAChR (Homo sapiens, UniProt P30926+P32297).
Experiment [3] deals with hα9α10 nAChR (Homo sapiens, UniProt Q9GZZ6+Q9UGM1).
Chain of hα9α10 nAChR (Q9UGM1 26-479 limits assumed): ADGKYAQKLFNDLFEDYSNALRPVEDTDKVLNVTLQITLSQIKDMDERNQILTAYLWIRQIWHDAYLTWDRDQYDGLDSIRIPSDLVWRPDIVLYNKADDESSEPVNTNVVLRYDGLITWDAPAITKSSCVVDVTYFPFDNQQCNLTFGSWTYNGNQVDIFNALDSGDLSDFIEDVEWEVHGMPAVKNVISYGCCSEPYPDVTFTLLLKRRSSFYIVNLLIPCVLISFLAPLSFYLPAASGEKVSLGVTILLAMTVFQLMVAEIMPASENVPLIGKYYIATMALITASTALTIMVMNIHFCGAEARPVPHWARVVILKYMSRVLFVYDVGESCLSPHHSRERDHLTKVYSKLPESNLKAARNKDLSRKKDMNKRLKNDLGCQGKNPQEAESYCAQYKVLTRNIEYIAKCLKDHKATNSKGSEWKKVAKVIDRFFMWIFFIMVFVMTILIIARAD
Chain of hα9α10 nAChR (Q9GZZ6 25-450): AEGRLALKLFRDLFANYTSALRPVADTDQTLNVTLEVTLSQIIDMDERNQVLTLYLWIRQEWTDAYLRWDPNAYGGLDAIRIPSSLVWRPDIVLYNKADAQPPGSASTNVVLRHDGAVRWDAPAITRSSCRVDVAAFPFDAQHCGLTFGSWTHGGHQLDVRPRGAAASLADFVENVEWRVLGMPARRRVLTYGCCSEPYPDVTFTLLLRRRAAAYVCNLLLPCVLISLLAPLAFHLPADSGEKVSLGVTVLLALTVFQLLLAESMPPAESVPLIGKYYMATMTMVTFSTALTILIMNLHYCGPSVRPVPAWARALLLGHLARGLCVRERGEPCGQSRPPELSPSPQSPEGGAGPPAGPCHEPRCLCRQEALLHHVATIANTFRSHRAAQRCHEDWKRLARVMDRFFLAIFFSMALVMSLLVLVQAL

Chain of hα3β2 nAChR (P32297 32-505): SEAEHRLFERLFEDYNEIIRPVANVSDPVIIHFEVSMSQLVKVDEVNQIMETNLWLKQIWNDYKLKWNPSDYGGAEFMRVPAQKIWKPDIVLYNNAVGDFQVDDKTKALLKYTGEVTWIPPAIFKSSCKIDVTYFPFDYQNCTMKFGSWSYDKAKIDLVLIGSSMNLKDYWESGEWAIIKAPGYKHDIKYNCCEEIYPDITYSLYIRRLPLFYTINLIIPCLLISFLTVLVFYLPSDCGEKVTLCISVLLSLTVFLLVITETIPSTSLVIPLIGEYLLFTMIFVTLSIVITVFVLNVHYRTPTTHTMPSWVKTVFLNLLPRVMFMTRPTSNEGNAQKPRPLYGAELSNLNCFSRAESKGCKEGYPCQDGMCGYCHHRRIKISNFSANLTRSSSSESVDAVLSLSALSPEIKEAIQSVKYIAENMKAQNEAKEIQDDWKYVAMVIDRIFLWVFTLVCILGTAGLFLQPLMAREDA
Chain of hα3β2 nAChR (P17787 26-502): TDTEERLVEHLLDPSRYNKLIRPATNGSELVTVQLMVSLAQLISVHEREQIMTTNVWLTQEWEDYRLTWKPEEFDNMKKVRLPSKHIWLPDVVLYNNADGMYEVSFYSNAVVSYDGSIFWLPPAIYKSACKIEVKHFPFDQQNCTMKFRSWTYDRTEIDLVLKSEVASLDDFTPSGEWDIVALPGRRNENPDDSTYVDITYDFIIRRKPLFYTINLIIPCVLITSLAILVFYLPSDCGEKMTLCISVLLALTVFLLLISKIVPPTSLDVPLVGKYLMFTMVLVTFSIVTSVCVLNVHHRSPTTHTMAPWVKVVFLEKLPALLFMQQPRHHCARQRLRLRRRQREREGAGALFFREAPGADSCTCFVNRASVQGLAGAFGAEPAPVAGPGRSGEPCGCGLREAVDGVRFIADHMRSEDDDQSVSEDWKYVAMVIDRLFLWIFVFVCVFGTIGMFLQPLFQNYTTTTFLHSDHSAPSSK
Chain of hα3β4 nAChR (P32297 32-505): as the sequence (P32297 32-505) above
Chain of hα3β4 nAChR (P30926 22-498): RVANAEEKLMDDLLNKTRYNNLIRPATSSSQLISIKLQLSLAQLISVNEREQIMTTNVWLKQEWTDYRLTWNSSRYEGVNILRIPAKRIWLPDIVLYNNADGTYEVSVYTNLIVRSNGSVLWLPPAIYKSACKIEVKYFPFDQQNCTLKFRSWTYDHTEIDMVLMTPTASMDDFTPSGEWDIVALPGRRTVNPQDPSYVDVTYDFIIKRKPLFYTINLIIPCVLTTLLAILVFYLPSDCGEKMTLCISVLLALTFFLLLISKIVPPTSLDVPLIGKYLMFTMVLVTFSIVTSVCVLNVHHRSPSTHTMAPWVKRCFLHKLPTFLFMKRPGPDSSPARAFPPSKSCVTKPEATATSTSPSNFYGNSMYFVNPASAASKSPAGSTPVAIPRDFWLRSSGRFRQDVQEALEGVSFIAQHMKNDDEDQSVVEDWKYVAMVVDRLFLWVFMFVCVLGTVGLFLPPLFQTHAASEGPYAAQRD

Turning to α-conotoxin BuIA, the “Inhibition of the ACh-evoked current amplitude at hα3β2 nAChR” value in experiment [1] is listed as more than 90%. The “Inhibition of the ACh-evoked current amplitude at hα3β4 nAChR” value in experiment [2] is recorded as more than 90%.
With α-conotoxin Vc1.1, in experiment [1], the “Inhibition of ACh-evoked current at hα3β2 nAChR” value is “complete inhibition”. Moreover, in experiment [3], the “Inhibition of ACh-evoked current at hα9α10 nAChR” value is recorded as “complete inhibition”.
